Laboratory results published in US7211422B2, “Polypeptide having α-isomaltosylglucosaccharide synthase activity” (Kabushiki Kaisha Hayashibara Seibutsu Kagaku Kenkyujo, priority 2001, dated 2007).

Tests used:
[1] = system: α-isomaltosylglucosaccharide-forming enzyme from Bacillus globisporus N75; test: Action on saccharides (TLC before and after enzymatic reaction); format: biochemical; set-up: key: −: it showed no change; +: it showed a slight reduction of the color spot of the substrate and the formation of other reaction product; ++: it showed a high reduction of the color spot of the substrate and the formationof other reaction product; +++: it showed a substantial disappearance of the substrate spot and the formation of other reaction product; conditions: two units/g substrate, substrate 2% (w/v), 30° C., pH 6.0, 24 hours
Protocol: (§1) It was tested whether saccharides can be used as substrates for the polypeptide of α-isomaltosylglucosaccharide-forming enzyme of the present invention. For the purpose, a solution of maltose, maltotriose, maltotetraose, maltopentaose, maltohexaose, maltoheptaose, isomaltose, isomaltotriose, panose, isopanose, trehalose, kojibiose, nigerose, neotrehalose, cellobiose, gentibiose, maltitol, maltotriitol, lactose, sucrose, erlose, selaginose, maltosyl glucoside, or isomaltosyl glucoside was prepared.
(§2) To each of the above solutions was added two units/g substrate of a purified polypeptide specimen of α-isomaltosylglucosaccharide-forming enzyme from either Bacillus globisporus C11 obtained by the method in Experiment 1-3, Bacillus globisporus N75 obtained by the method in Experiment 2-3, or Arthrobacter globiformis A19 obtained by the method in Experiment 3-3, and the resulting each solution was adjusted to give a substrate concentration of 2% (w/v) and incubated at 30° C. and pH 6.0, except for using pH 8.4 for the enzyme from Arthrobacter globiformis A19, for 24 hours. In order to analyze the saccharides in the reaction mixture before and after the enzymatic reaction, silica gel thin-layer chromatography (hereinafter, abbreviated as “TLC”) was carried out. After two-times development using, as a developer, a mixture solution of n-butanol, pyridine, and water (=6:4:1), and, as a thin-layer plate, “KIESELGEL 60”, an aluminum plate (20×20 cm) for TLC commercialized by Merck & Co., Inc., Rahway, USA, the saccharides in the reaction mixture were examined whether the enzyme acted or not by the coloration of sugars by the sulfuric acid-methanol method.

[2] = system: α-isomaltosylglucosaccharide-forming enzyme from Bacillus globisporus C11; test: as above; format: biochemical; set-up: key: −: it showed no change; +: it showed a slight reduction of the color spot of the substrate and the formation of other reaction product; ++: it showed a high reduction of the color spot of the substrate and the formationof other reaction product; +++: it showed a substantial disappearance of the substrate spot and the formation of other reaction product; conditions: two units/g substrate, substrate 2% (w/v), 30° C., pH 6.0, 24 hours
Protocol: as §1, §2

[3] = system: α-isomaltosylglucosaccharide-forming enzyme from Arthrobacter globiformis A19; test: as above; format: biochemical; set-up: key: −: it showed no change; +: it showed a slight reduction of the color spot of the substrate and the formation of other reaction product; ++: it showed a high reduction of the color spot of the substrate and the formationof other reaction product; +++: it showed a substantial disappearance of the substrate spot and the formation of other reaction product; conditions: two units/g substrate, substrate 2% (w/v), 30° C., pH 8.4, 24 hours
Protocol: as §1, §2

[4] = system: polypeptide having α-isomaltosylglucosaccharide-forming enzyme activity, obtained in Experiment 1-3; test: Reaction product from maltooligosaccharide (sugar composition by HPLC); format: biochemical, Bacillus globisporus C11; set-up: unit not given here; conditions: 1% (w/v) substrate, 35° C., pH 6.0, 8 hours; for Sugar composition of reaction mixture, substrate Maltopentaose: 0.1 unit/g-solid; for Sugar composition of reaction mixture, substrate Maltotetraose: 0.2 unit/g-solid; for Sugar composition of reaction mixture, substrate Maltotriose / Sugar composition of reaction mixture, substrate Mlatose: two units/g-solid
Protocol: To an aqueous solution containing one percent (w/v) of maltose, maltotriose, maltotetraose, or maltopentaose as a substrate was added the polypeptide having α-isomaltosylglucosaccgaride-forming enzyme activity, obtained in Experiment 1-3, in an amount of two units/g-solid for maltose and maltotriose, 0.2 unit/g-solid for maltotetraose, and 0.1 unit/g-solid for maltopentaose, followed by incubation at 35° C. and pH 6.0 for 8 hours. After stopping the enzymatic reaction by a 10-minutes incubation, sugar compositions in the reaction mixture were measured by HPLC using “YMC Pack ODS-AQ303”, a column commercialized by YMC Co., Ltd., Tokyo, Japan, at a column temperature of 40° C. and a flow rate of 0.5 ml/minutes of water, and using as a detector “RI-8012”, a differential refractometer commercialized by Tosoh Corporation, Tokyo, Japan.

Row | Compound | Enzyme action, N75 enzyme [1] | Enzyme action, C11 enzyme [2] | Enzyme action, A19 enzyme [3] | Sugar composition of reaction mixture, substrate Maltopentaose [4] | Sugar composition of reaction mixture, substrate Maltotetraose [4] | Sugar composition of reaction mixture, substrate Maltotriose [4] | Sugar composition of reaction mixture, substrate Mlatose [4]
1 | O=C[C@H](O)[C@@H](O)[C@H](O[C@@H]1O[C@H](CO)[C@@H](O)[C@H](O)[C@H]1O)[C@H](O)CO [Cellobiose, cellobiose] | − | − | − |  |  |  | 
2 | OC[C@H]1O[C@@H](OC[C@H]2OC(O)[C@H](O)[C@@H](O)[C@@H]2O)[C@H](O)[C@@H](O)[C@@H]1O (stereo partly drawn) [Gentibiose, gentibiose] | − | − | − |  |  |  | 
3 | OC[C@H]1O[C@H](OC[C@H]2O[C@H](O[C@H]3[C@H](O)[C@@H](O)[C@@H](O[C@H]4[C@H](O)[C@@H](O)[C@@H](O)O[C@@H]4CO)O[C@@H]3CO)[C@H](O)[C@@H](O)[C@@H]2O)[C@H](O)[C@@H](O)[C@@H]1O [Glucosylmaltotriose, α-isomaltosylmaltose] |  |  |  | 0.0 | 6.8 | 31.5 | 2.4
4 | OC[C@H]1O[C@H](OC[C@H]2OC(O)[C@H](O)[C@@H](O)[C@@H]2O)[C@H](O)[C@@H](O)[C@@H]1O (stereo partly drawn) [Isomaltose, isomaltose] | − | − | − | 0.0 | 0.0 | 0.0 | 0.5
5 | OC[C@H]1O[C@H](OC[C@H]2O[C@H](OC[C@H]3OC(O)[C@H](O)[C@@H](O)[C@@H]3O)[C@H](O)[C@@H](O)[C@@H]2O)[C@H](O)[C@@H](O)[C@@H]1O (stereo partly drawn) [Isomaltotriose, isomaltotriose] | − | − | − |  |  |  | 
6 | OC[C@H]1O[C@H](O[C@H]2[C@H](O)[C@@H](O)[C@@H](OC[C@H]3OC(O)[C@H](O)[C@@H](O)[C@@H]3O)O[C@@H]2CO)[C@H](O)[C@@H](O)[C@@H]1O (stereo partly drawn) [Isopanose, isopanose] | ++ | ++ | ++ |  |  |  | 
7 | OC[C@H]1O[C@@H](O[C@H]2[C@H](O)[C@@H](O)C(O)O[C@@H]2CO)[C@H](O)[C@@H](O)[C@H]1O (stereo partly drawn) [Lactose, lactose] | − | − | − |  |  |  | 
8 | OC[C@@H](O)[C@@H](O[C@H]1O[C@H](CO)[C@@H](O)[C@H](O)[C@H]1O)[C@H](O)[C@@H](O)CO [Maltitol, maltitol] | − | − | − |  |  |  | 
9 | OC[C@H]1O[C@H](O[C@H]2O[C@H](CO)[C@@H](O[C@H]3O[C@H](CO)[C@@H](O)[C@H](O)[C@H]3O)[C@H](O)[C@H]2O)[C@H](O)[C@@H](O)[C@@H]1O [Maltosyl glucoside, maltosyl glucoside] | ++ | ++ | ++ |  |  |  | 
10 | OC[C@H]1O[C@H](O[C@H]2[C@H](O)[C@@H](O)[C@@H](O[C@H]3[C@H](O)[C@@H](O)[C@@H](O[C@H]4[C@H](O)[C@@H](O)C(O)O[C@@H]4CO)O[C@@H]3CO)O[C@@H]2CO)[C@H](O)[C@@H](O)[C@@H]1O (stereo partly drawn) [Maltotetraose, maltotetraose] | +++ | +++ | +++ | 19.2 | 35.1 | 1.8 | 0.0
11 | OC[C@H]1O[C@H](OC[C@H]2O[C@H](O[C@H]3[C@H](O)[C@@H](O)C(O)O[C@@H]3CO)[C@H](O)[C@@H](O)[C@@H]2O)[C@H](O)[C@@H](O)[C@@H]1O (stereo partly drawn) [Panose, panose] | − | − | − | 0.0 | 0.0 | 1.2 | 8.2
12 | OC[C@H]1O[C@H](O[C@H]2O[C@H](CO)[C@@H](O)[C@H](O)[C@H]2O[C@H]2O[C@H](CO)[C@@H](O)[C@H](O)[C@H]2O)[C@H](O)[C@@H](O)[C@@H]1O [Selaginose, selaginose] | − | − | − |  |  |  | 
13 | OC[C@H]1O[C@@](CO)(O[C@H]2O[C@H](CO)[C@@H](O)[C@H](O)[C@H]2O)[C@@H](O)[C@@H]1O [Sucrose, sucrose] | − | − | − |  |  |  | 
14 | OC[C@H]1O[C@H](O[C@H]2O[C@H](CO)[C@@H](O)[C@H](O)[C@H]2O)[C@H](O)[C@@H](O)[C@@H]1O [Trehalose, trehalose] | − | − | − |  |  |  | 
15 | OC[C@H]1O[C@H](OC[C@H]2O[C@H](O[C@H]3[C@H](O)[C@@H](O)[C@@H](O[C@H]4[C@H](O)[C@@H](O)[C@@H](O[C@H]5[C@H](O)[C@@H](O)C(O)O[C@@H]5CO)O[C@@H]4CO)O[C@@H]3CO)[C@H](O)[C@@H](O)[C@@H]2O)[C@H](O)[C@@H](O)[C@@H]1O (stereo partly drawn) [X, α-isomaltosylmaltotriose] |  |  |  | 11.4 | 30.0 | 2.1 | 0.0
16 | OC[C@H]1O[C@H](OC[C@H]2O[C@H](O[C@H]3[C@H](O)[C@@H](O)[C@@H](O[C@H]4[C@H](O)[C@@H](O)[C@@H](O[C@H]5[C@H](O)[C@@H](O)[C@@H](O[C@H]6[C@H](O)[C@@H](O)C(O)O[C@@H]6CO)O[C@@H]5CO)O[C@@H]4CO)O[C@@H]3CO)[C@H](O)[C@@H](O)[C@@H]2O)[C@H](O)[C@@H](O)[C@@H]1O (stereo partly drawn) [Y, α-isomaltosylmaltotetraose] |  |  |  | 26.8 | 1.4 | 0.0 | 0.0
17 | isomaltosyl glucoside | − | − | − |  |  |  | 
18 | maltoheptaose | +++ | +++ | +++ |  |  |  | 
